From PubChem BioAssay (NCI)
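Tested at 5 concentrations; 48 h exposure; 96-well plates; endpoints linearly interpolated, else capped at highest concentration. GI50 marks 50% less growth. TGI: total growth inhibition.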

Assays:
Assay in all cases: NCI tumour cell line growth inhibition, 48 h
[1] = system: SN12C renal
[2] = system: SNB-75 CNS
[3] = system: A549 NSCLC
[4] = system: HCT-15 colon
[5] = system: SW-620 colon
[6] = system: HT29 colon
[7] = system: UACC-257 melanoma
[8] = system: SNB-19 CNS
[9] = system: SK-OV-3 ovarian
[10] = system: LOX IMVI melanoma

Compound	GI50 [1]	TGI [1]	GI50 [2]	TGI [2]	GI50 [3]	TGI [3]	GI50 [4]	TGI [4]	GI50 [5]	TGI [5]	GI50 [6]	TGI [6]	GI50 [7]	TGI [7]	GI50 [8]	TGI [8]	GI50 [9]	TGI [9]	GI50 [10]	TGI [10]
COc1ccc(-c2nc3sc(-c4ccc(Cl)cc4)cn3n2)cc1	1.84 µM	> 50 µM	1.61 µM	6.85 µM	1.59 µM	5.89 µM	24.5 µM	> 50 µM	5.51 µM	> 50 µM	2.96 µM	> 50 µM	> 50 µM	> 50 µM	2.47 µM	> 50 µM	11.7 µM	> 50 µM	> 50 µM	> 50 µM
COc1ccc(N2Cc3cnc(Nc4ccccc4)nc3N([C@@H]3CC[C@@H](O)C3)C2=O)cc1	1.31 µM	> 25 µM	0.377 µM	3.58 µM	5.16 µM	> 25 µM	1.66 µM	> 25 µM	3.81 µM	> 18.2 µM	3.57 µM	> 25 µM	7.36 µM	> 25 µM	11.9 µM	> 25 µM	3.69 µM	> 25 µM	1.14 µM	5.17 µM
COC(=O)C(C(=O)C(=O)Nc1ccc(C(F)(F)F)cc1[N+](=O)[O-])c1csc(-n2nc(-c3ccccc3)cc2-c2ccccc2)n1 (stereo not given)		> 100 µM		> 100 µM		> 100 µM		> 100 µM		> 100 µM		> 100 µM		> 100 µM		> 100 µM		> 100 µM		> 100 µM
CC1(C)C(=O)C(C)(C)C1=NN		> 100 µM		> 100 µM		> 100 µM		> 100 µM		> 100 µM		> 100 µM		> 100 µM		> 100 µM		> 100 µM		> 100 µM
C=C(CCCCCCCCC)CC(=O)SCCNC(=O)CCNC(=O)C(O)C(C)(C)COP(=O)(O)OP(=O)(O)OCC1OC(n2cnc3c(N)ncnc32)C(O)C1OP(=O)(O)O (stereo not given)		> 100 µM		58.8 µM		> 100 µM		> 100 µM		> 100 µM		> 100 µM		> 100 µM		> 100 µM		> 100 µM		75.7 µM
C=CCN(/C=C1/C(=O)O[C@H](COC)[C@@]2(C)C1=C(O)C(=O)C1=C2[C@H](OC(C)=O)C[C@]2(C)C(=O)CC[C@@H]12)CC=C	1.11 µM	> 10 µM	0.0364 µM	0.816 µM	0.382 µM	> 8.15 µM	1.19 µM	> 10 µM	2.17 µM	> 10 µM	0.422 µM	> 10 µM	0.72 µM	> 9.25 µM	3.45 µM	> 10 µM	0.331 µM	> 8.47 µM	1.65 µM	> 10 µM
O=Cc1ccccc1OCCOc1cc(OCCOc2ccccc2C=O)c(OCCOc2ccccc2C=O)cc1OCCOc1ccccc1C=O		> 100 µM		23.9 µM		> 100 µM		> 100 µM		> 100 µM		> 100 µM		> 100 µM		> 82.9 µM		> 100 µM		> 100 µM
CSC(CC(=O)O)C(=O)O (stereo not given)		> 100 µM		> 100 µM		> 100 µM		> 100 µM		> 100 µM		> 100 µM		> 100 µM		> 100 µM		> 100 µM		> 100 µM
C[C@H](NC(=O)[C@@H]1CSSC[C@@H](NC(=O)c2nc3ccccc3cc2O)C(=O)NCC(=O)N1C)c1ccccc1	5.62 µM	14.1 µM	7.62 µM	43.1 µM	7.06 µM	15.8 µM	2.55 µM	9.62 µM	1.85 µM	6.26 µM	1.13 µM	3.35 µM	7.63 µM	24.6 µM	7.24 µM	19.4 µM	5.59 µM	21.2 µM	0.649 µM	1.52 µM
